The record followed here is patent EP0429999A1, “Novel cephalosporins, process for their preparation and their use as medicaments” (BAYER AG, priority 1989, dated 1991).

Assay in all cases: MIC (MHK), agar dilution on Iso-Sensitest agar, multipoint inoculator
What all share (format): cell-based

In one assay the test system is Staph. aur. 25455. The conditions noted are these: strain Staph. aur. 25455; 37°C, read after ca. 20 h, ca. 10^4 colony-forming particles per inoculation point. From the text:
(§1) Die minimalen Hemmkonzentrationen (MHK) wurden per Reihenverdünnungsverfahren auf Iso-Sensitest Agar (Oxoid) bestimmt. Für jede Prüfsubstanz wurde eine Reihe von Agarplatten hergestellt, die bei jeweils doppelter Verdünnung abfallende Konzentrationen des Wirkstoffes enthielten. Die Agarplatten wurden mit einem MultipointInokulator (Denley) beimpft. Zum Beimpfen wurden Übernachtkulturen der Erreger verwandt, die zuvor so verdünnt wurden, daß jeder Impfpunkt ca. 10^4 koloniebildende Partikel enthielt. Die beimpften Agarplatten wurden bei 37°C bebrütet, und das Keimwachstum wurde nach ca. 20 Stunden abgelesen. Der MHK-Wert (µg/ml) gibt die niedrigste Wirkstoffkonzentration an, bei der mit bloßem Auge kein Keimwachstum zu erkennen war.
(§2) MHK-Werte: Agarverdünnung/Multipoint

The subject of the next assay is Strept. faec. 27101. The conditions noted are these: strain Strept. faec. 27101; 37°C, read after ca. 20 h, ca. 10^4 colony-forming particles per inoculation point.
From the text: as §1, §2

Another assay concerns Staph. epi. 25185. Particulars: strain Staph. epi. 25185; 37°C, read after ca. 20 h, ca. 10^4 colony-forming particles per inoculation point.
From the text: as §1, §2

For a further assay, the system named is Enterococc. 27185. Particulars: strain Enterococc. 27185; 37°C, read after ca. 20 h, ca. 10^4 colony-forming particles per inoculation point.
From the text: as §1, §2

The test system of the next assay is Klebs. 6097. The conditions noted are these: strain Klebs. 6097; 37°C, read after ca. 20 h, ca. 10^4 colony-forming particles per inoculation point.
From the text: as §1, §2

In another assay the test system is E. coli A 261. Particulars: Escherichia coli, A261; strain E. coli A 261; 37°C, read after ca. 20 h, ca. 10^4 colony-forming particles per inoculation point.
From the text: as §1, §2

≈ marks a conversion by molar mass, not a printed value.

In the case of `C/C=C\C1=C(C(=O)O)N2C(=O)[C@@H](NC(=O)[C@H](N)c3cc4sc(N)nc4s3)[C@H]2SC1` [Beispiel 13a], the MIC against Staph. aur. 25455 was not above 0.25 µg/mL; in the assay on Strept. faec. 27101 it was 16 µg/mL (≈ 35.4 µM); with Staph. epi. 25185, not above 0.25 µg/mL; against Enterococc. 27185 it was 2 µg/mL (≈ 4.43 µM); in the assay with Klebs. 6097, 2 µg/mL (≈ 4.43 µM); against E. coli A 261 it was 4 µg/mL (≈ 8.86 µM).
